Laboratory results: US20250326748A1, “COMPOUNDS AND METHODS FOR MODULATING SPLICING” (REMIX THERAPEUTICS INC., priority 2022, published 2025)
Read-outs that look alike come from different tables or passages of the source.

Legend:
MYB mRNA = test: Splicing RT-qPCR assay, MYB canonical (CJ) and alternative (AJ) junction mRNA; assay type: cell-based, human; details: Homo sapiens; for IC50: canonical junction mRNA; for AC50: alternative junction mRNA, read-out: MYB AJ (AC50, increase in AJ mRNA)
How it was run: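 A673 or K562 cells were treated for 24 h at 37 °C with an 11-point 3-fold compound dilution series (top final 10 uM, DMSO ≤0.25%). Lysates then went to one-step TaqMan RT-qPCR quantifying canonical (CJ) and alternative-exon (AJ) junction transcripts, normalized to a housekeeping gene.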

K562 cells = test: Cell viability, Cell Titer Glo 2.0 assay, K562; details: 72 hours
[1] = qPCR panel, read-out: MYB CJ (decrease in CJ mRNA levels, IC50)
[2] = RT-qPCR, A673 or K562 cells, 24 hours treatment
[3] = RT-qPCR, A673 or K562 cells, 24 hours treatment, read-out: MYB CJ (IC50, decrease in CJ mRNA)

Row | SMILES | IC50 (MYB mRNA; [1]) | AC50 (MYB mRNA; [2]) | IC50 (MYB mRNA; [3]) | Effect on Cell Viability, K562 (K562 cells)
1 | Cn1cc2cc(-c3ccc4cc(N5CC[C@H](NCC6CC6)C5)cnc4n3)c(O)c(F)c2n1 [Compound 136, 5-{6-[(3S)-3-[(cyclopropylmethyl)amino]326pyrrolidine-1-yl]-1,8-naphthyridin-2-yl}-7-fluoro-2-methylindazol-6-ol] | 0.1 to 1 µM | < 0.1 µM | 0.1 to 1 µM | A (<100 nM)
2 | CN(C)C1CCN(c2cnc3nc(-c4cc5cn(C)nc5cc4O)ccc3c2)CC1 [Compound 316] | 0.1 to 1 µM | 0.1 to 1 µM | 0.1 to 1 µM | B (100-1000 nM)
3 | C[C@@H]1CN(c2cnc3nc(-c4cc5cn(C)nc5c(F)c4O)cc(C4CC4)c3c2)C[C@H](C)N1 [Compound 305, 5-{4-cyclopropyl-6-[(3R,5S)-3,5-dimethylpiperazin-1-yl]-1,8-naphthyridin-2-yl}-7-fluoro-2-methylindazol-6-ol] | 0.1 to 1 µM | 0.1 to 1 µM | 0.1 to 1 µM | C (1000-9999 nM)
4 | CN1CCC[C@H]2CN(c3cnc4nc(-c5cc6cn(C)nc6c(F)c5O)cc(Cl)c4c3)C[C@H]21 [Compound 304] | 0.1 to 1 µM | 0.1 to 1 µM | 0.1 to 1 µM | B (100-1000 nM)
5 | Cc1cn2cc(-c3cc(Cl)c4cc(N5C[C@H](C)N[C@@H](C)C5)cnc4n3)cc(F)c2n1 [Compound 298] | < 0.1 µM | < 0.1 µM | < 0.1 µM | B (100-1000 nM)
6 | Cc1c(O)c(-c2cc(Cl)c3cc(N4CCNC(C)C4)cnc3n2)cc2cn(C)nc12 (centres unmarked) [Compound 147] | 0.1 to 1 µM | 0.1 to 1 µM | 0.1 to 1 µM | B (100-1000 nM)
7 | CN[C@H]1CN(c2cnc3nc(-c4cc5cn(C)nc5c(C)c4O)ccc3c2)C[C@@H]1F (single isomer, unassigned) [Compound 131] | 0.1 to 1 µM | 0.1 to 1 µM | 0.1 to 1 µM | C (1000-9999 nM)
8 | Cc1c(O)c(-c2ccc3c(Cl)c(N4CCNCC4)cnc3n2)cc2cn(C)nc12 [Compound 278, 5-[5-chloro-6-(piperazin-1-yl)-1,8-naphthyridin-2-yl]-2,7-dimethylindazol-6-ol] | < 0.1 µM | < 0.1 µM | < 0.1 µM | A (<100 nM)
9 | Cc1cn2nc(-c3cnc4nc(C5CCNCC5)ccc4c3)cc(C)c2n1 [Compound 115, 6-(2,8-dimethylimidazo[1,2-b]pyridazin-6-yl)-2-(piperidin-4-yl)-1,8-naphthyridine] | 1 to 10 µM | 1 to 10 µM | 1 to 10 µM | C (1000-9999 nM)
10 | CNC(=O)c1cc(-c2cc3cn(C)nc3c(C)c2O)nc2ncc(N3CCNCC3)cc12 [Compound 150, 2-(6-hydroxy-2,7-dimethylindazol-5-yl)-N-methyl-6-(piperazin-1-yl)-1,8-naphthyridine-4-carboxamide] | > 10 µM | > 10 µM | > 10 µM | D (greater than 10 μM)
11 | Cc1c(O)c(-c2cc(Cl)c3cc(N(C)[C@H]4CCNC4)cnc3n2)cc2cn(C)nc12 [Compound 294] | 0.1 to 1 µM | 0.1 to 1 µM | 0.1 to 1 µM | B (100-1000 nM)
12 | Cn1cc2cc(-c3cnc4nc(N5CCC(NC(C)(C)C)C5)ccc4c3)c(O)cc2n1 (centres unmarked) [Compound 133, 5-{7-[3-(tert-butylamino)pyrrolidin-1-yl]-1,8-naphthyridin-3-yl}-2-methylindazol-6-ol] | > 10 µM | > 10 µM | > 10 µM | D (greater than 10 μM)
13 | Cc1c(O)c(-c2cc(Cl)c3cc(NC4CCNC4)cnc3n2)cc2cn(C)nc12 (centres unmarked) [Compound 146, 5-[4-chloro-6-(359pyrrolidine-3-ylamino)-1,8-naphthyridin-2-yl]-2,7-dimethylindazol-6-ol] | 0.1 to 1 µM | < 0.1 µM | 0.1 to 1 µM | B (100-1000 nM)
14 | Cn1cc2cc(-c3cc(Cl)c4cc(N5CCNC6(CC6)C5)cnc4n3)c(O)c(F)c2n1 [Compound 274] | < 0.1 µM | < 0.1 µM | < 0.1 µM | B (100-1000 nM)
15 | Cc1cn2nc(-c3ccc4cc(N5C[C@@H](C)N[C@@H](C)C5)cnc4n3)cc(C)c2n1 [Compound 330] | 0.1 to 1 µM | 0.1 to 1 µM | 0.1 to 1 µM | B (100-1000 nM)
16 | Cn1cc2cc(-c3ccc4cc(N5CC[C@@H](NCC6CC6)C5)cnc4n3)c(O)c(F)c2n1 [Compound 135, 5-{6-[(3R)-3-[(cyclopropylmethyl)amino]330pyrrolidine-1-yl]-1,8-naphthyridin-2-yl}-7-fluoro-2-methylindazol-6-ol] | < 0.1 µM | < 0.1 µM | < 0.1 µM | A (<100 nM)

Row | SMILES | IC50 (MYB mRNA; [1]) | AC50 (MYB mRNA; [2]) | IC50 (MYB mRNA; [3]) | Effect on Cell Viability, K562 (K562 cells)
17 | CN[C@@H]1CN(c2cnc3nc(-c4cc5cn(C)nc5c(C)c4O)ccc3c2)C[C@@H]1F [Compound 132, 5-{6-[(3S,4R)-3-fluoro-4-(methylamino)pyrrolidin-1-yl]-1,8-naphthyridin-2-yl}-2,7-dimethylindazol-6-ol] | 0.1 to 1 µM | < 0.1 µM | 0.1 to 1 µM | B (100-1000 nM)
18 | CNC1CCN(c2cnc3nc(-c4cc5cn(C)nc5c(C)c4O)ncc3c2)C1 (centres unmarked) [Compound 104, 2,7-dimethyl-5-{6-[3-(methylamino)pyrrolidin-1-yl]pyrido[2,3-d]pyrimidin-2-yl}indazol-6-ol] | < 0.1 µM | < 0.1 µM | < 0.1 µM | A (<100 nM)
19 | Cc1c(O)c(-c2ccc3cc(N4CCC(NCC5CC5)C4)cnc3n2)cc2cn(C)nc12 (centres unmarked) [Compound 105, 5-(6-{3-[(cyclopropylmethyl)amino]pyrrolidin-1-yl}-1,8-naphthyridin-2-yl)-2,7-dimethylindazol-6-ol] | < 0.1 µM | < 0.1 µM | < 0.1 µM | A (<100 nM)
20 | CCN[C@H]1CCN(c2cnc3nc(-c4cc5cn(C)nc5cc4O)cc(Cl)c3c2)C1 [Compound 318] | < 0.1 µM | < 0.1 µM | < 0.1 µM | A (<100 nM)
21 | CN(c1cnc2nc(-c3cc4cn(C)nc4c(F)c3O)cc(Cl)c2c1)[C@H]1CCNC1 [Compound 275] | < 0.1 µM | < 0.1 µM | < 0.1 µM | A (<100 nM)
22 | CN(c1cnc2nc(-c3cc4cn(C)nc4c(F)c3O)cc(Cl)c2c1)[C@@H]1CCNC1 [Compound 276] | < 0.1 µM | < 0.1 µM | < 0.1 µM | A (<100 nM)
23 | C[C@H]1CN(c2cnc3nc(-c4cc5cn(C)nc5c(F)c4O)cc(Cl)c3c2)C[C@H](C)N1 [Compound 280] | < 0.1 µM | < 0.1 µM | < 0.1 µM | A (<100 nM)
24 | C[C@H]1CN(c2cnc3nc(-c4cc(F)c5nn(C)cc5c4)cc(Cl)c3c2)C[C@@H](C2CC2)N1 [Compound 288] | 0.1 to 1 µM | 0.1 to 1 µM | 0.1 to 1 µM | B (100-1000 nM)
25 | Cc1cn2nc(-c3cc(Cl)c4cc(N5C[C@H](C)N[C@@H](C)C5)cnc4n3)cc(C)c2n1 [Compound 336] | < 0.1 µM | < 0.1 µM | < 0.1 µM | B (100-1000 nM)
26 | Cc1cn2cc(-c3cc(Cl)c4cc(N5C[C@@H](C)N[C@@H](C)C5)cnc4n3)cc(F)c2n1 [Compound 297] | 0.1 to 1 µM | 0.1 to 1 µM | 0.1 to 1 µM | B (100-1000 nM)
27 | CN[C@H]1CCN(c2cnc3nc(-c4cc(C)c5nc(C)cn5n4)cc(Cl)c3c2)C1 [Compound 340] | < 0.1 µM | 0.1 to 1 µM | < 0.1 µM | B (100-1000 nM)
28 | CN[C@@H]1CN(c2cnc3nc(-c4cc5cn(C)nc5c(C)c4O)ccc3c2)C[C@H]1C [Compound 126, 2,7-dimethyl-5-{6-[(3R,4S)-3-methyl-4-(methylamino)382pyrrolidine-1-yl]-1,8-naphthyridin-2-yl}indazol-6-ol] | 0.1 to 1 µM | 0.1 to 1 µM | 0.1 to 1 µM | B (100-1000 nM)
29 | Cc1c(O)c(-c2ccc3cc(N4CCC(NCC5CC5)C4)cnc3n2)cc2cn(C)nc12 (stereo in doubt) [Compound 119, 5-{6-[(3R)-3-[(cyclopropylmethyl)amino]pyrrolidin-1-yl]-1,8-naphthyridin-2-yl}-2,7-dimethylindazol-6-ol] | < 0.1 µM | < 0.1 µM | < 0.1 µM | A (<100 nM)
30 | Cc1c(O)c(-c2ccc3c(C(F)(F)F)c(N4CCNCC4)cnc3n2)cc2cn(C)nc12 [Compound 302, 2,7-dimethyl-5-[6-(piperazin-1-yl)-5-(trifluoromethyl)-1,8-naphthyridin-2-yl]indazol-6-ol] | 0.1 to 1 µM | 0.1 to 1 µM | 0.1 to 1 µM | B (100-1000 nM)
31 | CN1CCC[C@@H]2CN(c3cnc4nc(-c5cc6cn(C)nc6c(F)c5O)cc(Cl)c4c3)C[C@@H]21 [Compound 303] | 0.1 to 1 µM | 0.1 to 1 µM | 0.1 to 1 µM | B (100-1000 nM)
32 | Cc1cn2nc(-c3cc(Cl)c4cc(N5CCC(N6CCC6)CC5)cnc4n3)cc(C)c2n1 [Compound 349] | 0.1 to 1 µM | 0.1 to 1 µM | 0.1 to 1 µM | B (100-1000 nM)
